# From ChEMBL document CHEMBL3272295, “Drugs derived from cannabinoids. 5. delta6a,10a-Tetrahydrocannabinol and heterocyclic analogs containing aromatic side chains” (J Med Chem, 1976)
# How the values were obtained:
# Mus musculus [1] = test: Analgesic activity in po dosed mouse assessed as inhibition of acetic acid-induced writhing administered 30 mins prior to acetic acid challenge measured after 5 mins for 20 mins; assay type: functional
# Rattus norvegicus [2] = test: Analgesic activity in Sprague-Dawley rat assessed as increase in pain threshold at 60 mg/kg, po after 15 to 90 mins by tail flick test; assay type: functional
# Mus musculus [3] = test: Antianxiety activity in albino BALB/cJ mouse assessed as reduction in footshock-induced fighting behavior at 5 mg/kg, po after 30 to 90 mins; assay type: functional; set-up: scale not given: the % may be the effect or the level left
# Rattus norvegicus [4] = test: Antianxiety activity in Long-Evans rat assessed as reduction in motor activity at 5 mg/kg, po after 2 hrs relative to vehicle-treated control; assay type: functional; set-up: scale not given: the % may be the effect or the level left
# Rattus norvegicus [5] = test: Antianxiety activity in Long-Evans rat assessed as reduction in motor activity at 40 mg/kg, po after 2 hrs relative to vehicle-treated control; assay type: functional; set-up: scale not given: the % may be the effect or the level left
# Rhesus monkey = test: Antianxiety activity in po dosed rhesus monkey assessed as antiagressive behavior measured every hour post dosing; assay type: functional; details: Macaca mulatta, read-out: MED
# Rattus norvegicus [6] = test: Antipsychotic activity in rat assessed as reduction of methamphetamine-induced hyperactivity at 1 mg/kg, po administered prior to methamphetamine challenge relative to vehicle-treated control; assay type: functional; set-up: scale not given: the % may be the effect or the level left
# [7] = Acute toxicity in po dosed mouse; assay type: organism-based; details: in vivo
# Rattus norvegicus [8] = test: Analgesic activity in po dosed Sprague-Dawley rat after 15 to 90 mins by tail flick test; assay type: functional
# Mus musculus [9] = test: Analgesic activity in mouse assessed as inhibition of acetic acid-induced writhing at 20 mg/kg, po administered 30 mins prior to acetic acid challenge measured after 5 mins for 20 mins; assay type: functional
# Rattus norvegicus [10] = test: Antipsychotic activity in rat assessed as reduction of methamphetamine-induced hyperactivity at 5 mg/kg, po administered prior to methamphetamine challenge relative to vehicle-treated control; assay type: functional; set-up: scale not given: the % may be the effect or the level left
# Mus musculus [11] = test: Increase in footshock-induced fighting behavior in albino BALB/cJ mouse at 10 mg/kg, po after 30 to 90 mins; assay type: functional
# Rattus norvegicus [12] = species: Rattus norvegicus; test: animal or person; assay type: functional; details: Charles River, route oral
# Description: Antidiarrheal activity in Charles River rat assessed as inhibition of castor oil-induced diarrhea by measuring protected animals at 0.5 mg/kg, po administered 1 hr prior to castor oil challenge measured after 1 hr relative to vehicle-treated control
# Mus musculus [13] = test: Analgesic activity in mouse assessed as inhibition of acetic acid-induced writhing at 16 mg/kg, po administered 30 mins prior to acetic acid challenge measured after 5 mins for 20 mins; assay type: functional
# Rattus norvegicus [14] = test: Antihypertensive activity in spontaneously hypertensive rat model assessed as reduction in blood pressure at 3 mg/kg, po after 3 hrs; assay type: functional; set-up: scale not given: the % may be the effect or the level left
# Rattus norvegicus [15] = test: Antihypertensive activity in spontaneously hypertensive rat model assessed as reduction in blood pressure at 3 mg/kg, po after 24 hrs; assay type: functional; set-up: scale not given: the % may be the effect or the level left
# Rattus norvegicus [16] = test: Antihypertensive activity in spontaneously hypertensive rat model assessed as reduction in blood pressure at 1 mg/kg, po after 3 hrs; assay type: functional; set-up: scale not given: the % may be the effect or the level left
# Rattus norvegicus [17] = test: Antihypertensive activity in spontaneously hypertensive rat model assessed as reduction in blood pressure at 1 mg/kg, po after 24 hrs; assay type: functional; set-up: scale not given: the % may be the effect or the level left
# Rattus norvegicus [18] = test: Analgesic activity in Sprague-Dawley rat assessed as increase in pain threshold at 40 mg/kg, po after 15 to 90 mins by tail flick test; assay type: functional
# Mus musculus [19] = test: Analgesic activity in mouse assessed as inhibition of acetic acid-induced writhing at 10 mg/kg, po administered 30 mins prior to acetic acid challenge measured after 5 mins for 20 mins; assay type: functional
# Rattus norvegicus [20] = test: Antianxiety activity in Long-Evans rat assessed as reduction in motor activity at 10 mg/kg, po after 2 hrs relative to vehicle-treated control; assay type: functional; set-up: scale not given: the % may be the effect or the level left
smiles,measurement,setting,value
CN1C(=O)CN=C(c2ccccc2)c2cc(Cl)ccc21 [DIAZEPAM],ED50,Mus musculus [1],4 mg/kg
same,Activity,Rattus norvegicus [2],64%
same,Activity,Mus musculus [3],95%
same,Activity,Rattus norvegicus [4],15%
same,Activity,Rattus norvegicus [5],60%
same,minimal effective dose,Rhesus monkey,1 mg/kg
C#CCN1CCC2=C(C1)c1c(OC(C)=O)cc(C(C)CCCc3ccc(F)cc3)cc1OC2(C)C (stereo not drawn),Activity,Rattus norvegicus [6],30%
same,LD50,[7],≥ 1000 mg/kg
same,ED50,Rattus norvegicus [8],1 mg/kg
same,inhibition in vivo at 20 mg/kg,Mus musculus [9],27%
same,Activity,Rattus norvegicus [4],57%
same,Activity,Rattus norvegicus [5],90%
same,Activity,Rattus norvegicus [10],66%
C#CCN1CCC2=C(C1)c1c(O)cc(C(C)CCCc3ccc(C)cc3)cc1OC2(C)C (stereo not drawn),Activity,Mus musculus [11],17%
same,inhibition in vivo at 0.5 mg/kg,Rattus norvegicus [12],0%
same,LD50,[7],≥ 1000 mg/kg
same,inhibition in vivo at 16 mg/kg,Mus musculus [13],32%
same,Activity,Rattus norvegicus [4],24%
same,Activity,Rattus norvegicus [10],46%
CC1CCC2=C(C1)c1c(O)cc(C(C)CCc3ccc(F)cc3)cc1OC2(C)C (stereo not drawn),LD50,[7],≥ 1000 mg/kg
same,Activity,Rattus norvegicus [14],28%
same,Activity,Rattus norvegicus [15],8%
same,Activity,Rattus norvegicus [16],8%
same,Activity,Rattus norvegicus [17],5%
same,Activity,Rattus norvegicus [18],70%
same,inhibition in vivo at 10 mg/kg,Mus musculus [19],27%
same,Activity,Rattus norvegicus [20],72%
same,Activity,Rattus norvegicus [10],23%
